This is an account of results in patent US10456390B2, “Combinations comprising MABA compounds and corticosteroids” (ALMIRALL, S.A., priority 2013, dated 2019).

In this test the test system is IL-8 secretion induced by LPS in peripheral blood neutrophils. Put plainly: Inhibition of IL-8 secretion induced by LPS in isolated peripheral blood neutrophils (ELISA). In kind it is cell-based. The following applies: Homo sapiens, Neutrophil; for inhibition at 10 pM: single agent at 0.01 nM. As for the experimental part: 5 Healthy subjects were included for leukocyte experiments. Pulmonary function tests (forced spirometry) and arterial blood gas measurements were performed during the days prior to sample.
Neutrophils were isolated from peripheral blood of healthy volunteers according to standard procedures established in the laboratory (Milara J et al., Respiration 2012; 83, 147-158).
Isolated neutrophils were incubated with different drugs (MABA compound, mometasone or fluticasone) or vehicle for 30 minutes before incubation with LPS (1 mcg/mL) (Lipopolysaccharide, a representative stimulus as inflammatory mediator) for 6 hours in standard cell culture conditions (37° C. and 5% CO2). Supernatant were collected to measure IL-8 (the inflammatory marker).
IL-8 (Interleukin-8) was determined by ELISA according to the standard procedure.
Data was presented as mean±SEM (see FIG. 1 and FIG. 2). Statistical analysis of results was carried out by analysis of variance (ANOVA) followed by Bonferroni test, by Student's t test, or by non-parametric tests as appropriate (GraphPad Software Inc, San Diego, Calif., USA). Significance was accepted when P<0.05.

Where [1] appears, read: 30 min pre-incubation, LPS 1 mcg/mL 6 h, neutrophils from healthy subjects (5 volunteers in triplicate), Table 1.

Consider `CN(CCCn1nnc2cc(CNC[C@H](O)c3ccc(O)c4[nH]c(=O)ccc34)ccc21)[C@H]1CC[C@H](OC(=O)C(O)(c2cccs2)c2cccs2)CC1` [Cpd 2, Trans-4-[{3-[5-({[(2R)-2-hydroxy-2-(8-hydroxy-2-oxo-1,2-dihydroquinolin-5-yl)ethyl]amino}methyl)-1H-1,2,3-benzotriazol-1-yl]propyl}(methyl)amino]cyclohexyl hydroxy(di-2-thienyl)acetate], for which the inhibition at 10 pM under setting [1] was found to be 4.17% and the inhibition at 10 pM (LPS-induced IL-8 secretion, neutrophils from healthy subjects, Table 2) stood at 4.17%.
Under “single agent at 0.1 nM, LPS-induced IL-8 secretion, neutrophils from healthy subjects, Table 2”, `C[C@@H]1C[C@H]2[C@@H]3C[C@H](F)C4=CC(=O)C=C[C@]4(C)[C@@]3(F)[C@@H](O)C[C@]2(C)[C@@]1(O)C(=O)SCF` [Fluticasone, fluticasone] registered an inhibition at 0.0001 µM of 10.2%.
On to `C[C@@H]1C[C@H]2[C@@H]3CCC4=CC(=O)C=C[C@]4(C)[C@@]3(Cl)[C@@H](O)C[C@]2(C)[C@@]1(O)C(=O)CCl` [Mometasone, mometasone], for which the inhibition at 10 pM under setting [1] is 2.85%.

Broadly, the inhibition is how much of the control response was suppressed. High values mean a strong effect, low ones a weak effect.
